Experimental findings from patent publication US12180159B2, “Activators of the unfolded protein response” (The Board of Trustees of the University of Illinois, priority 2018, dated 2024) are described below.

Data set [1] concerns ERα Negative MCF-10A cells. The experiment in a line: Trypan Blue exclusion cell death assay, MCF-10A cells. The class given is cell-based. As to conditions: 75 nM, 24 hours. The text has this:
(§1) TRYPAN BLUE: For decades, viable cells have been measured by their ability to exclude the dye Trypan Blue. […] Dead cells, which have lost membrane integrity, take up the dye and are blue. Thus, the percentage of dead cells is the percentage of cells that are Trypan Blue positive out of the total cell population. Quantitative assessment of Trypan Blue uptake uses a cell counter from Fisher. Since the assay is instrument based, there is no observer bias in determining the percentage of Trypan Blue positive cells.
(§2) TRYPAN BLUE ASSAYS: Assays are performed on cells in 6 well plates: 300,000 cells are plated in each well of a 6 well plate in 3 ml of medium. After 24 hours, the DMSO vehicle or the indicated compound is added (in 1000th of the vol.) The cells incubated for an additional 24 hours, and then harvested in 0.25 ml of trypsin, followed after harvest by 0.75 ml of medium. The cells are spun down and resuspended in 100-200 μl of medium left that is over the cell pellet (resuspend cells by pipetting up and down a few times). Add 10 μl to 10 μl of trypan blue. Then 10 μl is inserted into the counting slide. After inserting the slide into the Fisher TC20 counting is automatic (these many cells are needed because an accurate ratio of Trypan Blue positive to Trypan Blue negative cells requires about 200 cells in the field the instrument counts).
In FIG. 28, neither the test compounds nor BHPI kill non-tumorigenic ERα Negative MCF-10A breast cells. ERα Negative MCF-10A cells were maintained for 24 hours in DMSO vehicle or 75 nM of BHPI or 75 nM of each of the indicated test compounds: 4, 6 and 105. Cell death was determined using the instrument-based Trypan Blue exclusion assay. (n=3±SEM).

A further data set deals with TDG cells (T47DERαD538G). The experiment in a line: Trypan Blue exclusion cell death assay, TDG cells. Conditions: 24 hours; for killing of TDG-Luc cells: dose response. In kind it is cell-based, human.
Description: as §1, §2
The Trypan Blue cell death assay was used to evaluate the ability of the active enantiomer of C-105 [(−)-105] to kill ERα positive TDG-Luc cells. For all studies, 300,000 TDG-Luc cells/well in 10% FBS were plated in a 6 well plate in triplicate. 24 hours after plating, the indicated concentrations the active enantiomer of (−)-105, or BHPI (top) ICI, or OHT (Lower left) or (+)-105 (lower right) were added. After 24 hours, the cells were harvested, and the % dead cells was determined by automated Trypan Blue exclusion using the Countess II automated hemocytometer. Percentage of viable cells was calculated by doing 100−(Cell Death %). (n=3±SEM).
TDG cells were incubated for 24 hours with 75 nM of BHPI or 75 nM of each of the indicated test compounds: 4, 6 and (±)-105 (enantiomers not separated). Cell death was determined using the instrument-based Trypan Blue exclusion assay. Structures are in the Synthesis section. […] (n=3±SEM).

The subject of another data set is TYS cells (T47DERαY537S). The experiment in a line: Trypan Blue exclusion cell death assay, TYS cells. The class given is cell-based, human. Conditions: 24 hours.
Description: as §1, §2
TYS cells were incubated for 24 hours with 35 nM of BHPI or 35 nM of each of the indicated test compounds: 2, 4, and 105. Cell death was determined using the instrument-based Trypan Blue exclusion assay. (n=3±SEM).
TYS cells were incubated for 24 hours with 50 nM of BHPI or 50 nM of each of the indicated test compounds: 4, 6 and 105. Cell death was determined using the instrument-based Trypan Blue exclusion assay. (n=3±SEM).

Data set [2] relates to ERα positive and ERα negative cell lines. In kind it is cell-based. As for the experimental part:
ERα positive MCF-7 breast cancer, Caov-3 ovarian cancer and ECC-1 uterine cancer cells and ERα negative MDA-MB-231 human breast cancer cells and HeLa, human cervical carcinoma cells and MCF-10A human mammary epithelial cells were plated at 10,000 cells/well (96 well plate) in 50 μl of medium. After about 18 hours, an additional 50 μl of medium containing 2× the desired final concentration of the test compound (C-105) was added to each well (final vol. 100 μl/well). After 24 hours Alamar Blue reagent was added and fluorescence in the wells was read after 1 hour (BMG PheraStar Microplate Reader). % relative death was determined by setting the reading for 10,000 nM raptinal-treated cells to 100% dead cells and the reading for vehicle-treated cells to 0% dead cells. (Data is the average±SEM of 3 independent experiments with 5 biological replicates for each sample within each independent experiment.)
FIG. 3 compares the ability of (±)-105 to kill ERα positive and ERα negative cells. The dose response tests the ability of (±)-105 to rapidly kill ERα positive and ERα negative cells. […] After 24 hours Alamar Blue reagent was added and fluorescence in the wells was read. % relative death was determined by setting the reading for […] raptinal-treated cells to 100% dead cells and the reading for vehicle-treated cells to 0% dead cells. […]

A further data set relates to Caov-3 cells. The experiment in a line: Cell death of Caov-3 ovarian cancer cells (automated Trypan Blue exclusion). In kind it is cell-based, human. Conditions: 24 hours. As for the experimental part: FIG. 33. 105, but not BHPI, kills therapy-resistant ovarian CaOV-3 ovarian cancer cells. (±)-105; Cell death assay: Automated Trypan Blue exclusion. (24 hours post (±)-105) FIG. 34. (−)105 nearly eradicates ER+ drug-resistant tumors. Orthotopic breast cancer model, TYS-Luc cells, 40 mg/kg (−)-105 i.p., daily. 7 d Post injection image is a much longer exposure at higher gain than before injection image.
Caov3: Drug resistant ERα positive ovarian cancer cells. […] These cells are completely resistant to tamoxifen and fulvestrant and partially resistant to cisplatin and paclitaxel.

In data set [3] the test system is T47D, TYS-4 and TDG-1 cells. The experiment in a line: MTS proliferation assay, T47D, TYS and TDG cells. In kind it is cell-based, human. Conditions: 4 days. As for the experimental part: FIG. 30 compares the ability of BHPI and test compounds to inhibit proliferation of T47D, TYS and TDG cells. T47D cells were in medium containing 10 FBS (which contains estrogen), TYS-4 and TDG-1 cells were in medium containing 10% cd-FBS (estrogen depleted). Cells are plated at 2,000 cells/well in 96 well plates. After 24 hours in medium containing FBS or charcoal-dextran treated FBS (depleted of endogenous estrogens), the indicated concentration of each compound (in DMSO at 1/1000th of the volume of medium) was added. After 2 days the medium was changed, and the compounds were added again. After 2 additional days (4 days total) MTS assays are used to evaluate cell proliferation. (n=6±S.E.M.).
(In general: Tetrazolium dyes change colour on reduction, which living cells bring about.)

In data set [4] the test system is MCF-7 ERα Y537S-luciferase cells. The experiment in a line: Long-term cell culture experiment, MCF-7Y537S cells. Conditions: conditions as FIG. 15. The class given is cell-based, human.
The test system of the next data set is MCF-7 and TYS-Luc cells. The experiment in a line: Cell death with 2-APB or thapsigargin (Trypan Blue exclusion). The class given is cell-based, human. As to conditions: 2-APB. As for the experimental part:
ERα positive MCF-7 and TYS-Luc were treated with DMSO vehicle (Veh), or BHPI or (−)-105 plus or minus 2-APB for the indicated times. Cells death was determined using the instrument-based Trypan Blue exclusion assay. […] This is consistent with (−)-105 inducing powerful lethal activation of the anticipatory UPR pathway. (n=3±SEM). […] TYS-Luc cells were maintained in DMSO vehicle (Veh) or BHPI, or (−)-105 with or without thapsigargin (THG) for the indicated times. Blocking the decline in ATP levels (FIG. 19) with THG inhibited (−)-105-induced cell death. […] (n=3±SEM).

For a further data set, the system named is MCF-7 tumors. The experiment in a line: MCF-7 orthotopic tumor model. In kind it is in vivo, mouse. Conditions: mouse, in vivo. As for the experimental part:
FIG. 39. SERK-F6 eradicates wild-type ERα tumors via hyperactivation of aUPR. a, MCF-7 orthotopic tumors were established in Nu/J ovariectomized mice supplemented with a 60 day E2 pellet (0.36 mg) and grown to ˜400 mm^3 (28 days to establish), randomized, then treated with vehicle daily (n=3), vehicle weekly (n=3), fulv. weekly (5 mg/mouse, s.c., n=6), SERK-F6 daily (10 or 40 mg/kg p.o.). Vehicle arms were averaged. p values: *: p<0.05, **: p<0.01, ***: p<0.001, ****: p<0.0001. Tumor images were taken at the end of the study (day 21) and are representative of all tumors (n=6). b-e, MCF-7 cells were orthotopically bi-laterally grafted and tumors were grown until total tumor burden was ˜ 400 mm^3 prior to daily treatment with vehicle or SERK-F6 (40 mg/kg p.o.). Mice (n=5 per arm) were sacrificed after 3 days (b,c) and 7 days (d,e) and tumors harvested. […] Vinculin (Vin) was used as a loading control. […] Error bars represent S.E.M.
FIG. 40. SERK-F6 is tolerated, reaches biologically relevant concentrations, and crosses the blood-brain barrier in vivo. a, Serum concentrations of SERK-F6 after indicated doses, route of administration, and time. Concentration was determined via LC/MS/MS analysis. […] AUC: Area Under the Curve, Cmax: maximum concentration, t1/2: half-life. c,d, Mice (CD-1) were treated with the indicated doses and times, then sacrificed and their serum and brains collected. Concentrations were determined via LC/MS/MS analysis. […] Treatment arms: vehicle daily (n=3), vehicle weekly (n=3), fulv. weekly (5 mg/mouse, s.c., n=6), SERK-F6 daily (10 or 40 mg/kg p.o.). Vehicle arms were combined. g, Mass of tumors harvested from mice. h, observed murine weight during this MCF-7 study (n=6). i,j, Tumor measurements for MCF-7 bilateral orthotopic model (n=4-5).
To probe the efficacy of SERK-F6 for killing ERα positive tumors, large MCF-7 tumors were grown and then intervened with therapy. […] The mice were then sacrificed prior to complete tumor eradication.

The test system of data set [5] is TYS and TDG breast cancer cells. The experiment in a line: Killing of TYS and TDG breast cancer cells by endocrine therapy drugs. In kind it is cell-based, human.
A further data set has as its system OVCAR-3 cells. Conditions: OVCAR-3 orthotopic xenograft.

For the molecule `O=C1Nc2c(C(F)(F)F)cccc2C1(c1ccc(O)cc1)c1ccc(OC(F)(F)F)cc1` (racemic) [(±)-105, 3-(4-hydroxyphenyl)-3-(4-(trifluoromethoxy)phenyl)-7-(trifluoromethyl)indolin-2-one], the “death of ERα Negative MCF-10A cells” value in [1] is listed as “neither BHPI nor any of the test compounds induce significant death”. Besides, in the data set on TDG cells (T47DERαD538G) (75 nM), the “ability to kill TDG cells compared to BHPI” value is listed as “greatly increased ability to kill”. For the same molecule, the “ability to kill TYS cells compared to BHPI” value with TYS cells (T47DERαY537S) (35 nM) is on record as “greatly increased ability to kill”; in the data set with TYS cells (T47DERαY537S) (50 nM), “increased ability to kill”. Further, the “selectivity for ERα positive cancer cell lines” value in data set [2] (0-10,000 nM, 24 hours) is reported as “selective for ERα positive cancer cell lines”. Further, the “killing of Caov-3 ovarian cancer cells” value in the data set with Caov-3 cells is given as “kills”. Also, the “effectiveness in killing ERα positive breast cancer cells compared to BHPI” value (“effectiveness … compared to BHPI” for short) in [3] is given as “more effective than BHPI”.
For `O=C1Nc2c(C(F)(F)F)cccc2C1(c1ccc(O)cc1)c1ccc(OC(F)(F)F)cc1` (single isomer, unassigned; (+)) [(+)-105, 3-(4-hydroxyphenyl)-3-(4-(trifluoromethoxy)phenyl)-7-(trifluoromethyl)indolin-2-one], the “killing of TDG-Luc cells” value in the data set with TDG cells (T47DERαD538G) is “inactive and does not kill”. Besides, in data set [2], the “effect of the inactive enantiomer in ERα positive and ERα negative cell lines” value is “ineffective and not toxic”. The “effect on MCF-7Y537S cells in long-term experiments” value in data set [4] was “inactive”.
Regarding `NCCOB(c1ccccc1)c1ccccc1` [2-APB], the “effect on (−)-105-induced cell death” value in the data set on MCF-7 and TYS-Luc cells (45 and 60 min.) is “partially blocked”; with MCF-7 and TYS-Luc cells (30 minutes), “nearly completely blocked”.
As for `COc1ccc(C2(c3ccc(O)cc3)C(=O)Nc3c(C)cccc32)cc1` (centres unmarked) [compound 2, 3-(4-hydroxyphenyl)-3-(4-methoxyphenyl)-7-methylindolin-2-one], the “effectiveness … compared to BHPI” value in [3] was “more effective than BHPI”.
In the case of `Cc1cccc2c1NC(=O)C2(c1ccc(O)cc1)c1ccc(OC(F)(F)F)cc1` (centres unmarked) [compound 6, 3-(4-hydroxyphenyl)-7-methyl-3-(4-(trifluoromethoxy)phenyl)indolin-2-one], in [1], the “death of ERα Negative MCF-10A cells” value is given as “neither BHPI nor any of the test compounds induce significant death”. For the same molecule, the “effectiveness … compared to BHPI” value in [3] is recorded as “more effective than BHPI”.
With `C[C@]12CC[C@@H]3c4ccc(O)cc4C[C@@H](CCCCCCCCC[S+]([O-])CCCC(F)(F)C(F)(F)F)[C@H]3[C@@H]1CC[C@@H]2O` (some centres unmarked) [fulvestrant, reference compound], in the data set with TDG cells (T47DERαD538G), the “killing of TDG-Luc cells” value is on record as “do not kill”. Also, in the data set on MCF-7 tumors, the “effect on large established MCF-7 tumors” value was “dramatic effects against these large and established tumors are not obtained”. The “ability to kill TYS and TDG breast cancer cells” value in data set [5] is reported as “no ability at all to kill”.
With `CC(=O)O[C@H]1C(=O)[C@@]2(C)[C@H]([C@H](OC(=O)c3ccccc3)[C@]3(O)C[C@H](OC(=O)[C@H](O)[C@@H](NC(=O)c4ccccc4)c4ccccc4)C(C)=C1C3(C)C)[C@]1(OC(C)=O)CO[C@@H]1C[C@@H]2O` [paclitaxel], the “effect on tumor growth / tumors” value with OVCAR-3 cells is reported as “ineffective”.
In the case of `CC/C(=C(\c1ccccc1)c1ccc(OCCN(C)C)cc1)c1ccccc1` [tamoxifen], the “ability to kill TYS and TDG breast cancer cells” value in data set [5] is listed as “no ability at all to kill”.
